Where two headings read alike, the source gives them in different places. Where a SMILES comes first, the peptide text is derived from it. The star is where a group is joined. Cbz = O=C(OCc1ccccc1)*
Assays:
[1] = test system: refractory/recurrent multiple myeloma; details: phase I, IPI-504 alone; cited from earlier work
[2] = test system: KMS-11 cells; assay: Test for the growth inhibition to KMS-11 (WST-1, 72 hours); format: cell-based, human; details: read-out: IC50 KMS-11 (growth-inhibitory effect, viable cell number)
Protocol: (§1) A cell solution (90 μL/well) of KMS-11 or KMS-11/Bor suspended in an RPMI1640 medium containing 10% FCS (hereinafter referred to as culture medium) at a concentration of 5×10^4 cells/mL was inoculated in a 96-well microplate (Nunc), and as for a blank the culture medium (100 μL/well each) was added, and the plate was incubated in a 5% carbon dioxide incubator for 5 hours.
(§2) The test compound was serially diluted to yield a diluted solution having a concentration of 10-fold of the final concentration, and the solution (10 μL/well each) was added (n=3 for one concentration). As for a control, the culture medium containing no test compound (10 μL/well each) was added. The tests for the control and the blank were performed in n=8. The incubation was carried out for 72 hours after addition of the test compound, and the number of viable cells was counted with a cell proliferation reagent WST-1 (WST-1 reagent; Roche Diagnostics). The WST-1 reagent (10 μL/well) was added to each plate. The plate was incubated in a carbon dioxide incubator for 2 hours, then stirred on a plate mixer, and the absorbance was measured at 450 nm and 655 nm using a microplate spectrophotometer (Molecular Device; SPECTRAmax 340PC-384). For each well, the differential absorbance was calculated by subtracting the absorbance at 655 nm from that at 450 nm. Further, the absorbance corresponding to the viable cell number was calculated by subtracting the differential absorbance of the blank from the above differential absorbance.
The followings describe the calculation method for IC50. The absorbance corresponding to the viable cell number obtained in the wells untreated with the test compound was regarded as 100%, and the absorbance obtained in the wells treated with the test compound was represented by the relative value (% control). From these values, the IC50 of viable cell number (the concentration at which the viable cell number is reduced to 50% of the control) was calculated. FIGS. 1 to 4 show the % control at the respective concentration of the test compound after treatment with the test compound. […]

[3] = test system: KMS-11/Bor (bortezomib-resistant KMS-11 cells); assay: Test for the growth inhibition to KMS-11/Bor (WST-1, 72 hours); format: cell-based, human; details: for IC50: KMS-11/Bor cells, 72 hours, WST-1, read-out: IC50 KMS-11/Bor (growth-inhibitory effect, viable cell number); for IC50 ratio (IC50 of KMS-11/Bor divided by IC50 of KMS-11): degree of bortezomib resistance, KMS-11/Bor vs KMS-11
Protocol: KMS-11 cells were suspended in an RPMI1640 medium containing 10% fetal calf serum (FCS) at a concentration of 5×10^4 cells/mL, and incubated at 37° C. in a 5% carbon dioxide incubator. Then, bortezomib was added thereto to adjust the final concentration of 5 nmol/L, and the incubation was continued. After confirmation of the survival and satisfactory growth of the cells, the cells were suspended at a concentration of 5×10^4 cells/mL, then bortezomib was added at a concentration of 10 nmol/L, and the incubation was continued. Then, after confirmation of the survival and satisfactory growth of the cells, the concentration of bortezomib was increased step by step, and the culture and subculture were repeated to create the bortezomib-resistant KMS-11 cells being capable of growing at a concentration of 100 nmol/L of bortezomib. Hereinafter, thus prepared cell line was referred to as “KMS-11/Bor”.
as §1, §2
(§3) The followings describe the calculation method for IC50. The absorbance corresponding to the viable cell number obtained in the wells untreated with the test compound was regarded as 100%, and the absorbance obtained in the wells treated with the test compound was represented by the relative value (% control). From these values, the IC50 of viable cell number (the concentration at which the viable cell number is reduced to 50% of the control) was calculated. FIGS. 1 to 4 show the % control at the respective concentration of the test compound after treatment with the test compound. […] In addition, values in which IC50 of KMS-11/Bor is divided by IC50 of KMS-11 (IC50 ratio) is shown in Table 3 as the degree of bortezomib resistance in the respective test compounds.

[4] = test system: OPM-2 cells; assay: Test for the growth inhibition to OPM-2 (WST-1, 72 hours); format: cell-based, human; details: read-out: IC50 OPM-2 (growth-inhibitory effect, viable cell number)
Protocol: (§4) A cell solution (90 μL/well) of OPM-2 or OPM-2/Bor suspended in an RPMI1640 medium containing 10% FCS (hereinafter referred to as culture medium) at a concentration of 5×10^4 cells/mL was inoculated in a 96-well microplate (Nunc), and as for a blank the culture medium (100 μL/well each) was added, and the plate was incubated in a 5% carbon dioxide incubator for 5 hours.
as §2, with “concentration” for “concentration,”
The followings describe the calculation method for IC50. The absorbance corresponding to the viable cell number obtained in the wells untreated with the test compound was regarded as 100%, and the absorbance obtained in the wells treated with the test compound was represented by the relative value (% control). From these values, the IC50 of viable cell number (the concentration at which the viable cell number is reduced to 50% of the control) was calculated. FIGS. 5 to 8 show the % control at the respective concentration of the test compound after treatment with the test compound. […]

[5] = test system: OPM-2/Bor (bortezomib-resistant OPM-2 cells); assay: Test for the growth inhibition to OPM-2/Bor (WST-1, 72 hours); format: cell-based, human; details: for IC50: OPM-2/Bor cells, 72 hours, WST-1, read-out: IC50 OPM/Bor (growth-inhibitory effect, viable cell number); for IC50 ratio (IC50 of OPM-2/Bor divided by IC50 of OPM-2): degree of bortezomib resistance, OPM-2/Bor vs OPM-2
Protocol: OPM-2 cells were suspended in an RPMI1640 medium containing 10% fetal calf serum (FCS) at a concentration of 5×10^4 cells/mL, and incubated at 37° C. in a 5% carbon dioxide incubator. Then, bortezomib was added thereto to adjust the final concentration of 2.5 nmol/L, and the incubation was continued. After confirmation of the survival and satisfactory growth of the cells, bortezomib was added at a concentration of 3.75 nmol/L, and the incubation was continued. Then, after confirmation of the survival and satisfactory growth of the cells, the concentration of bortezomib was increased step by step, and the culture and subculture were repeated to create the bortezomib-resistant OPM-2 cells being capable of growing at a concentration of 15 nmol/L of bortezomib. Hereinafter, thus prepared cell line was referred to as “OPM-2/Bor”.
as §4
as §2, with “concentration” for “concentration,”
as §3, with “FIGS. 5” for “FIGS. 1”, “to 8” for “to 4”, “IC50 ratio for OPM-2/Bor was” for “IC50 of KMS-11/Bor is”, “of OPM-2” for “of KMS-11”, “Table 4” for “Table 3”

[6] = test system: OPM-2/Bor cells; assay: Anti-tumor effect in a mouse model to which the OPM-2/Bor cells have been implanted; format: in vivo; details: for T/C value (V/V0 of group divided by V/V0 of negative control group): Day 14, OPM-2/Bor implanted scid mice
Protocol: The day before the implantation of cancer cells, an anti-asialo GM1 antibody (0.3 mg/mouse each) was administered intraperitoneally to Fox C. B-17/Icr-scidJcl mice (CLEA Japan, Inc.). The OPM-2/Bor cells were grown by incubation in an RPMI1640 medium containing 10% FCS at 37° C. in a 5% carbon dioxide incubator, and implanted into the ventral subcutaneous portion at a dose of 1×10^7 cells/mouse. Eighteen days after implantation, the major axis and minor axis of the tumor growing in the subcutaneous portion were measured with a vernier micrometer, and the tumor volume was calculated according to the following equation.
At the same time, the body weight of each mouse was measured, and the mice were divided into the following administration groups consisting of 5 mice per group so that the average tumor volume and the average body weight became uniform; and this day was regarded as the test-starting day 0, on which the administration was started.
Compound 22 was dissolved in physiological saline (Otsuka Pharmaceutical Co., Ltd.) at a concentration of 10 or 5 mg/mL, and administered intravenously in the tail vein at a dose of 0.01 mL/g body weight of mouse, respectively, (corresponding to 100 mg/kg and 50 mg/kg) twice a day continuously up to the 4th day from the starting day 0.
Bortezomib was dissolved in physiological saline at a concentration of 0.1 or 0.05 mg/mL, and administered intravenously in the tail vein at a dose of 0.01 mL/g body weight of mouse, respectively, (corresponding to […] and 0.5 mg/kg) once a day on the starting day 0, […].
A. Negative control group (Control): No administration of the test compound B. Bortezomib administered group: 1 mg/kg (administered once a day on the days 0, 3, 7, and 10) C. […]
Following the day 0, the tumor volume was measured twice a week. The anti-tumor effect was determined by calculating the average value of the tumor volume in each group and comparing a change of the tumor volume (V/V0), wherein the tumor volume on the day 0 was defined as V0.

[7] = test system: refractory/recurrent multiple myeloma; details: clinical, New England Journal of Medicine 348, 2609; cited from earlier work
[8] = test system: refractory/recurrent multiple myeloma; details: phase I, 17-AAG alone; cited from earlier work

SMILES	Cases with SD as anti-tumor effect [1]	IC50 ([2]; Homo sapiens) [nM]	IC50 ([3]; Homo sapiens) [nM]	IC50 ratio (IC50 of KMS-11/Bor divided by IC50 of KMS-11) [3]	IC50 ([4]; Homo sapiens) [nM]	IC50 ([5]; Homo sapiens) [nM]	IC50 ratio (IC50 of OPM-2/Bor divided by IC50 of OPM-2) [5]	T/C value (V/V0 of group divided by V/V0 of negative control group) ([6]; B group: 1 mg/kg intravenously once a day on days 0, 3, 7, 10)	T/C value (V/V0 of group divided by V/V0 of negative control group) ([6]; C group: 0.5 mg/kg intravenously once a day on days 0, 3, 7, 10)	Anti-tumor effect, change of tumor volume (V/V0), FIG. 9 ([6]; OPM-2/Bor implanted mice, Compound 22 100 and 50 mg/kg, bortezomib 1 and 0.5 mg/kg)	Share of refractory/recurrent multiple myeloma in which the drug is effective [7]	Share of refractory/recurrent multiple myeloma in which the drug is ineffective [7]	IC50 [2] [nM]	IC50 [3] [nM]	IC50 [4] [nM]	IC50 [5] [nM]	Patients with stable disease (SD) or more effect [8]
C=CCNc1c(O)cc2c(O)c1C[C@@H](C)C[C@H](OC)[C@H](O)[C@@H](C)/C=C(\C)[C@H](OC(N)=O)[C@@H](OC)/C=C\C=C(/C)C(=O)N2 [IPI-504]	3 out of the 17																
CC(C)C[C@H](NC(=O)[C@H](Cc1ccccc1)NC(=O)c1cnccn1)B(O)O [Bortezomib, bortezomib]		8.2	170	21	3.9	110	28	0.85	1.0	did not show a remarkable growth inhibitory effect	approximately 35%	approximately 40%					
C=CCNC1=C2C[C@@H](C)C[C@H](OC)[C@H](O)[C@@H](C)/C=C(\C)[C@H](OC(N)=O)[C@@H](OC)/C=C\C=C(/C)C(=O)NC(=CC1=O)C2=O [Compound 17-AAG, 17-allylamino-17-demethoxygeldanamycin]				0.76			1.1						82	62	310	350	9 out of the 22
CC(C)C[C@@H](C=O)NC(=O)[C@H](CC(C)C)NC(=O)[C@H](CC(C)C)NC(=O)OCc1ccccc1 [MG-132] (Cbz-Leu-Leu-Leu-aldehyde)		260	2000	7.7	94	1500	16										

Reference: patent publication US20110112099A1, “THERAPEUTIC AGENT FOR CANCER RESISTANT TO PROTEASE INHIBITOR” (KYOWA HAKKO KIRIN CO., LTD., priority 2007, published 2011)
